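The compound was tested at five concentrations on cells cultured in 96-well plates, with a 48-hour exposure period. GI50 = concentration required for 50% inhibition of growth. Definition used: TGI = concentration required for complete inhibition of growth.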
Assays:
Test in all cases: NCI-60 cell line screen, 48 h
[1] = test system: NCI-H460 lung
[2] = test system: RXF 393 renal
[3] = test system: DU-145 prostate
[4] = test system: SK-MEL-2 melanoma
[5] = test system: BT-549 breast
[6] = test system: HCT-15 colon
[7] = test system: UACC-257 melanoma
[8] = test system: SN12C renal
[9] = test system: CCRF-CEM leukemia
[10] = test system: UACC-62 melanoma

Structure (SMILES) | GI50 [1] [µM] | TGI [1] [µM] | GI50 [2] [µM] | TGI [2] [µM] | GI50 [3] [µM] | TGI [3] [µM] | GI50 [4] [µM] | TGI [4] [µM] | GI50 [5] [µM] | TGI [5] [µM] | GI50 [6] [µM] | TGI [6] [µM] | GI50 [7] [µM] | TGI [7] [µM] | GI50 [8] [µM] | TGI [8] [µM] | GI50 [9] [µM] | TGI [9] [µM] | TGI [10] [µM] | GI50 [10] [µM]
COC12C=C/C(=C(/C(=O)OCc3ccncc3)C(=O)CCCCCCCCC3(OC)C=C/C(=C(/C(=O)OCc4ccncc4)C(=O)CCCCCCCC1)O3)O2 | 0.915 | 1.98 | 0.277 | 0.896 | 0.709 | 2.29 | 1.08 | 3.05 | 0.638 | 3.21 | 0.548 | 1.74 | 1.14 | 4.49 | 0.471 | 3.89 | 0.0515 | 2.29 |  | 
O=C(O)[C@H](NS(=O)(=O)c1ccc2ccccc2c1)c1ccccc1 |  | > 100 |  | > 100 |  |  |  | > 100 |  |  |  | > 100 |  | > 100 |  | > 100 |  | > 100 | > 100 | 
COC1C(O)=C2C(=O)O/C(C)=C/C=C/C=C/C=C\CC(c3ccccc3)NC(=O)\C=C/C=C\C=C\C=C\[C@@]2(C)[C@@H]1O (stereo partly drawn) |  |  |  | 0.0962 |  | 0.178 |  | 0.15 |  | 0.0201 |  | 0.0834 |  | 0.165 |  | 0.538 |  | 0.0577 | 0.551 | 
COc1ccc2oc(-c3cccnc3)cc(=O)c2c1 |  | > 100 |  | > 100 |  |  |  | > 100 |  |  |  |  |  | > 100 |  | > 100 |  | > 100 | > 100 | 
O=c1[nH]cc(COCCO)c(=O)[nH]1 |  | > 100 |  | > 100 |  |  |  | > 100 |  |  |  | > 100 |  | > 100 |  | > 100 |  | > 100 | > 100 | 
Cc1cn2c(/C=C3\C(=O)Nc4ccc(O)cc43)c(-c3ccc(Cl)cc3)nc2s1 | 15.5 | 45.3 |  |  | 10.3 | 25.2 | 21.9 | 70.5 | 17.3 | 41.5 | 21.4 | > 100 | 21.3 | > 100 | 10.4 | 25.5 | 29.4 | > 100 | 56.2 | 9.4
O=C1c2ccccc2C2(O)c3cc4ccccc4cc3OC12O (stereo not drawn) |  | > 100 |  | 97.6 |  |  |  | > 100 |  |  |  | > 100 |  | 89.3 |  | > 100 |  | > 100 | > 100 | 
Cc1ccc(S(=O)(=O)N/N=C/c2oc(-c3ccncc3)c(-c3ccncc3)c2[N+](=O)[O-])cc1 |  | > 100 |  | > 100 |  |  |  | > 100 |  |  |  | > 100 |  | > 100 |  | > 100 |  | > 100 | > 100 | 
O=C1CC(C[C@H](O)C2CCCCC2O)CC(=O)N1Cc1ccccc1 (stereo partly drawn) |  | > 100 |  | > 100 |  |  |  | > 100 |  |  |  |  |  | > 100 |  | > 100 |  | > 100 | > 100 | 
COc1ccc(-c2cc(-c3ccccc3)c(C#N)c(=O)n2C2OC(CO)C(O)C(O)C2O)cc1 (stereo not drawn) |  | > 100 |  | > 100 |  |  |  |  |  |  |  | > 100 |  | > 100 |  | > 100 |  | > 100 | > 100 | 
